Reference: US20260174179A1, “ANTI-INFECTIVE SHOE SOLES” (priority 2019, published 2026)

Tested on: Pseudomonas aeruginosa (PAO)
Assay: Kirby-Bauer disk diffusion test, agar overlay culture
Assay type: cell-based
Conditions: 6 mm disk, 24 hours at 37° C.
Procedure: FIG. 13 is a schematic illustrating a Kirby-Bauer Disk Diffusion test. Bacterial cells are plated from a broth culture onto sterile agar petri dishes, and antibiotic soaked paper disks (or control disks without antibiotic) are placed directly on the dish. After 24 or more hours, a confluent layer of bacteria appear to grow up on the dish. Clearing or clear but hazy zones indicate antibiotic sensitivity of the test microbe. The size of the killing zone reflects how well the antibiotic diffuses into the agar and sensitivity of the organism.
FIG. 14A is an image showing the results of a Disk Diffusion test with Pseudomonas aeruginosa (PAO). Three disks were placed on a PAO/agar overlay culture: a penicillin-soaked paper disk, a negative control (no treatment) paper disk, and a sterile punch disk of pure elemental sheet copper, and the culture was incubated for 24 hours. Zones of inhibition are marked as clearing zones (dashed circles) where bacterial growth was stunted. […]
In some studies, a disk-diffusion test was used as a model for testing diffusion and bacterial targeting (FIG. 13). […] The bacteria were allowed to grow on the agar media, and growth was observed using a simple read-out: a zone of clearing around a disk indicated no bacterial growth, and conversely, the lack of a clearing perimeter indicated bacterial resistance. […]

## penicillin
  clearing extended from the edge of the disk: 5-7 mm
FIG. 14A
  killing zone: 6 mm
